Test results: publication PMC3532118, “A Novel Muscarinic Antagonist R2HBJJ Inhibits Non-Small Cell Lung Cancer Cell Growth and Arrests the Cell Cycle in G0/G1” (PLoS ONE, 2012)
Where two headings read alike, the source gives them in different places.

Legend:
[1] = tested on: H1299 cells; experiment: Exogenous ACh combined with R2HBJJ, cell viability (SRB)
Procedure: To determine the correlation between cholinergic signal pathways and R2HBJJ-induced growth inhibition, exogenous AChR agonist ACh was used. The effects of ACh on the growth of H1299 and on R2HBJJ-induced growth inhibition were observed.
Cells were seeded at a density of 6.0×10^3 cells/well in 96-well plates. After overnight incubation, the cells were treated with R2HBJJ (1.6–100 µM) or other antagonists (0.3–100 µM) for 72 h. The inhibitory effects of the antagonists on cell growth were determined using SRB assay, as described previously. For the combination administration, the agonist was added 1 h before R2HBJJ. Each experiment was performed in six replicates and repeated for three times. Cells treated with solvent (DMSO) were used as a control, with viability set at 100%.
(§1) GraphPad Prism 5 software was used for statistical analysis. For competition binding and Guinea-pig tracheal contraction assay, the IC50 values were determined by using the non-linear curve-fitting program. The inhibition constants (Ki values) were calculated by using the Cheng-Prusoff equation. For the experiments of exogenous ACh combined with R2HBJJ, two-way ANOVA was used to compare the interaction of two treatment factors. Post-hoc analyses were performed with Bonferroni's tests for comparisons to controls. For the cell viability assay after siRNA transfection, one-way ANOVA followed by Dunnett's t test was used. A P value of less than 0.05 was considered statistically significant.

[2] = tested on: H1299 cells; experiment: Cell viability assay (SRB), H1299; format: cell-based, human
Procedure: (§3) Cells were seeded at a density of 6.0×10^3 cells/well in 96-well plates. […] The inhibitory effects of the antagonists on cell growth were determined using SRB assay, as described previously [37]. […] Each experiment was performed in six replicates and repeated for three times. Cells treated with solvent (DMSO) were used as a control, with viability set at 100%.

[3] = tested on: H460 cells; experiment: Cell viability assay (SRB), H460; format: cell-based; conditions: Homo sapiens, NCI-H460, read-out: 50% growth-inhibitory concentration (GI50), H460, 72 h
Procedure: as §3

[4] = tested on: H1299 cells; experiment: cells
Procedure: as §1

[5] = tested on: A549 cells; experiment: Cell viability assay (SRB), A549; format: cell-based; conditions: Homo sapiens, read-out: 50% growth-inhibitory concentration (GI50), A549, 72 h, 100 µM highest concentration tested
Procedure: as §3

[6] = tested on: cyclin D1-CDK4/6-Rb in H1299 cells; experiment: Western blot of cell cycle regulatory proteins and Rb phosphorylation; format: cell-based, human
Procedure: Cell cycle transition from G1 to S is mainly activated by two different kinase composites: cyclin D1/CDK4, 6, and cyclin E, A/CDK2. Rb is the primary substrate of cyclin D-dependent kinase and plays a key role in the network of cell cycle regulation. To investigate the underlying molecular mechanisms of G0/G1 arrest induced by R2HBJJ, the time-dependent changes of several related cell cycle regulatory molecules were evaluated after treatment with 20 µM R2HBJJ in H1299 cells by using western blot analysis. […] The decrease of Rb phosphorylated at the position of Ser^807/811 occurred as early as 3 h after treatment and before apparent cell viability change. […] Further we evaluated the concentration response of Rb phosphorylation reduced after treatment with R2HBJJ for 48 h (Fig. 8B).
Cells were harvested and subjected to lysis in the buffer X (50 mM Tris, 270 mM NaCl, 1% Triton X-100, pH 7.4). Equal amounts of lysates (30 µg) were separated on 10% SDS-PAGE and then transferred to polyvinylidene difluoride membranes (Millipore). Membranes were then blocked with PBS buffer containing 5% low fat milk and 0.1% Tween 20 (PBST) for 1 h at room temperature and then incubated with primary antibodies (1∶1000–2000) overnight at 4°C. After being washed three times with PBST, membranes were incubated with peroxidase-conjugated secondary antibodies (1∶5000) for 1 h at room temperature. The membranes were washed with PBST again and developed with a pro-light HRP chemiluminescence detection kit (TianGen Biotech, China). β-actin was used as a loading control.

[7] = tested on: H157 cells; experiment: Cell viability assay (SRB), H157; format: cell-based; conditions: Homo sapiens, NCI-H157, read-out: 50% growth-inhibitory concentration (GI50), H157, 72 h
Procedure: as §3

[8] = molecular target: T1, human muscarinic receptor M4 (Homo sapiens, UniProt P08173); experiment: biochemical; format: binding; conditions: mean ± SD
T1 construct: purchased Perkin Elmer Life and Analytical Sciences
Procedure: (§2) Bound radioligand was separated from free by rapid vacuum filtration through GF/C glass fiber filters (Whatman). The filters were rinsed three times with ice cold PBS. After being dried, the fibers were placed in scintillation vials with 0.5 ml of BetaPlate Scint. Radioactivity trapped on the filters was quantified by a BECKMAN Beta counter. The assay was repeated three times with duplicate samples.
as §1, with “used.” for “used. A P value of less than 0.05 was considered statistically significant.”

[9] = molecular target: human muscarinic receptor M3 (Homo sapiens, UniProt P20309); experiment: biochemical
Procedure: as §2, §1

[10] = molecular target: human muscarinic receptor M1 (Homo sapiens, UniProt P11229); experiment: biochemical
Procedure: as §2, §1

[11] = molecular target: T2, human muscarinic receptor M2 (Homo sapiens, UniProt P08172); experiment: Radioligand binding assay with [3H]NMS (saturation and competition), M2; conditions: mean ± SD
T2 construct: purchased Perkin Elmer Life and Analytical Sciences
Procedure: as §2, §1

[12] = molecular target: T3, human muscarinic receptor M5 (Homo sapiens, UniProt P08912); experiment: Radioligand binding assay with [3H]NMS (saturation and competition), M5; conditions: mean ± SD
T3 construct: purchased Perkin Elmer Life and Analytical Sciences
Procedure: as §2, §1

[13] = tested on: H1299 cells; experiment: Cell cycle analysis by flow cytometry, H1299; format: cell-based, human; conditions: H1299, 20 µM
Procedure: Alterations in cell cycle were determined by using flow cytometric assay. Cells were seeded at a density of 1×10^5 cells/well in six-well plates and synchronized by plating in RPMI-1640 containing 1% FBS for 24 h. For time-dependent response, cells were incubated in 2 ml fresh RPMI-1640 containing 10% FBS with 20 µM R2HBJJ for 24, 48, 72 h. For concentration-dependent response, cells were incubated for 48 h with R2HBJJ at final concentrations of 2.5, 5, 10, 15, 20 µM in 2 ml fresh RPMI-1640 containing 10% FBS. Fresh media added in the control well simultaneously. After treatment, the cells were harvested with trypsin, washed once with PBS, and then fixed in 70% ethanol overnight at 4°C. Before flow cytometry analysis, cells were stained with 200 µg/ml Ribonuclease A and 50 µg/ml propidium iodide (Sigma) for 30 min at room temperature away from light. 1×10^4 cells per sample were analyzed using a FACSCalibur flow cytometer (BD Biosciences). Data were evaluated using Modfit software.

[14] = tested on: BEP2D cells; experiment: Cell viability assay (SRB), BEP2D; format: cell-based; conditions: Homo sapiens, read-out: 50% growth-inhibitory concentration (GI50), 72 h, 100 µM highest concentration tested
Procedure: as §3

[15] = Homo sapiens, NCI-H1299, 72 h, read-out: cell viability
[16] = H1299, 72 h, SRB, antagonists 0.3–100 µM, no exogenous agonist
[17] = 2.4 nM [3H]NMS, n = 3, read-out: IC50 inhibiting [3H]NMS binding
[18] = Cheng-Prusoff, n = 3, read-out: Ki inhibiting [3H]NMS binding

Chain of human muscarinic receptor M3 (P20309 whole entry): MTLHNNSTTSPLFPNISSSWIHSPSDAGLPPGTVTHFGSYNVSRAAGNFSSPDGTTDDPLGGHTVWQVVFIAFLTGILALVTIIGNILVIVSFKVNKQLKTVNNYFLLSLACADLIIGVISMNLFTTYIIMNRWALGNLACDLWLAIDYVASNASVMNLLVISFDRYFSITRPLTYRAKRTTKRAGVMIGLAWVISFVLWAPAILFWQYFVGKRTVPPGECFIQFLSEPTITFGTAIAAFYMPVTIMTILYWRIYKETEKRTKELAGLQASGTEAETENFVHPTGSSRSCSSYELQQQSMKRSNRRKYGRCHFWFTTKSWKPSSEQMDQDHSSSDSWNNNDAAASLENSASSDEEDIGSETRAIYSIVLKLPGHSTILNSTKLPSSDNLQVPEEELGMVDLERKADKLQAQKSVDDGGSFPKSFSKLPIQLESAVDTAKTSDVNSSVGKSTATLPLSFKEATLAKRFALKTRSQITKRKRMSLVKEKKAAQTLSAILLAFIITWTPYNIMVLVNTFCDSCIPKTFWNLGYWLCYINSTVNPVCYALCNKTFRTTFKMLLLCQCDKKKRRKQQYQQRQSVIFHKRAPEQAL
T3 sequence (P08912 whole entry): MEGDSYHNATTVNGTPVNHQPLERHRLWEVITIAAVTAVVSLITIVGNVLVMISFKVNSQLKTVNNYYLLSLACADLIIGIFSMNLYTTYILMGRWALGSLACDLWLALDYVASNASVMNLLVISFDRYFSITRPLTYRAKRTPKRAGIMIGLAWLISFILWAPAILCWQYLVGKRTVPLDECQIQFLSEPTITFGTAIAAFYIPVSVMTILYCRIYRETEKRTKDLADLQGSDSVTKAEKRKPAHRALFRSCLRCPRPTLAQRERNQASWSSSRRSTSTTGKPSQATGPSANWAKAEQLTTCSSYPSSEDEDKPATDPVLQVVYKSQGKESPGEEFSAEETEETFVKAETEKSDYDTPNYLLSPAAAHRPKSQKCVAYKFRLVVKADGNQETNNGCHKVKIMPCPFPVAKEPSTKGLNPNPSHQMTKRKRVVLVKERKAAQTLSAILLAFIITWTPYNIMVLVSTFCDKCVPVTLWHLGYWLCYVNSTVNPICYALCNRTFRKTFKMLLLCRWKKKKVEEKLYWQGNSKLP
Chain of human muscarinic receptor M1 (P11229 whole entry): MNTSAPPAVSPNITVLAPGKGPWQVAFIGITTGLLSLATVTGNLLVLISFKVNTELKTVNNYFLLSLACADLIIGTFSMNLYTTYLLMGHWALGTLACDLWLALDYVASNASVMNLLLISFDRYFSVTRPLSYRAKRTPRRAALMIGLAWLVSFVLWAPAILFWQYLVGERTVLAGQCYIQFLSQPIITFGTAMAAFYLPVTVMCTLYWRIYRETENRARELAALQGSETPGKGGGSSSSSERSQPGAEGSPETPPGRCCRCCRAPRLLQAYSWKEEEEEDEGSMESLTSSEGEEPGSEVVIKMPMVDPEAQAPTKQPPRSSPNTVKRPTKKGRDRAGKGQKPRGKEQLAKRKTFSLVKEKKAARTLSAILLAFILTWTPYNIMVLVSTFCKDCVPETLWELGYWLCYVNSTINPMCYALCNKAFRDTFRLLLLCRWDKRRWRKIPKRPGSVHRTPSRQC
T2 sequence (P08172 whole entry): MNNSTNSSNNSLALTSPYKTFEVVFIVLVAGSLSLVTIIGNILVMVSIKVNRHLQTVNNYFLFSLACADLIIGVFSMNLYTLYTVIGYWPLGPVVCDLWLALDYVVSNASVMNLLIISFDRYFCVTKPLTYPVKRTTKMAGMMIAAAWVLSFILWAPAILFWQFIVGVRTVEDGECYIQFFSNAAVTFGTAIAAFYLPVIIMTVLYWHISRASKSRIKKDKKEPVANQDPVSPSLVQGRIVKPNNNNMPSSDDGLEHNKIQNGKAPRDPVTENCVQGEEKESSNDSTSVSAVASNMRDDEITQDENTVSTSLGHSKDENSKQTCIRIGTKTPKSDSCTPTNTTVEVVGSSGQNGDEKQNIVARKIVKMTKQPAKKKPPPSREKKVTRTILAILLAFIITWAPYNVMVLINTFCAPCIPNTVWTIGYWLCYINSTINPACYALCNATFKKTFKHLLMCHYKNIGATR
T1 sequence (P08173 whole entry): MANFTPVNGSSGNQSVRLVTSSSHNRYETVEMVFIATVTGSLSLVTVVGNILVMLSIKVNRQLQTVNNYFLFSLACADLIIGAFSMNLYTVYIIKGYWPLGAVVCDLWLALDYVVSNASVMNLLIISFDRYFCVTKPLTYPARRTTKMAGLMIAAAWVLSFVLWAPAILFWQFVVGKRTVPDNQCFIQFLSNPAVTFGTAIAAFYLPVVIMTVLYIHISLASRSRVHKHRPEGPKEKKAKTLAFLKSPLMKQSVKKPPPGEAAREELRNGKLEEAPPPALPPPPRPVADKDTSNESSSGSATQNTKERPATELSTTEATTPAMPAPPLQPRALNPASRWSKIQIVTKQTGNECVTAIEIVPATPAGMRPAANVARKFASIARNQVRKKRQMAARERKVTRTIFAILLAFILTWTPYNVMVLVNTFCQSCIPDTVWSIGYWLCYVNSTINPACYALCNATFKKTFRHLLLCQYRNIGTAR

CC(=O)OCC[N+](C)(C)C [ACh, Acetylcholine, reference compound]
effect of exogenous ACh alone on H1299 cell growth ([1]; ACh 1, 10 and 100 µM, 72 h): no significant effects on H1299 cell growth
viability at 1 µM [1, 15]: 102 ± 1.8%
viability at 10 µM [1, 15]: 105 ± 2.74%
viability at 100 µM [1, 15]: 99 ± 2.72%

CCN(CC)CC1CCCCN1CC(=O)N1c2ccccc2C(=O)Nc2cccnc21 (stereo not drawn) [AF-DX116]
effect on H1299 cell proliferation [2, 16]: inhibition on cell proliferation at the highest concentration tested

Br.CO[C@H]1CC=C2CCN3CCC4=C(CC(=O)OC4)[C@]23C1 [DhβE, Dihydro-β-erythroidine hydrobromide]
effect on H1299 cell proliferation [2, 16]: no obvious effects on cell proliferation

O[C@@](CO[C@H]1CN2CCC1CC2)(c1ccccc1)C1CCCC1 [R2-PHC]
inhibitory potency relative to darifenacin ([2]; H1299, 72 h, SRB): about 3.7 fold
effect on H1299 cell proliferation [2, 16]: significantly inhibited H1299 cell proliferation in a concentration-dependent manner

O[C@@](CO[C@H]1C[N+]2(C3CC3)CCC1CC2)(c1ccccc1)C1CCCC1 [R2HBJJ]
GI50 [3]: 8800 nM
viability at 8 µM [4, 15]: 83.5%
viability at 16 µM [4, 15]: 57.4%
effect on cell growth after M3 siRNA transfection ([4]; M3 siRNA treated H1299 cells, R2HBJJ 8 µM and 16 µM, 72 h): didn't further influence the cell growth
inhibitory potency relative to darifenacin ([2]; H1299, 72 h, SRB): about 3.7 fold
effect on H1299 cell proliferation [2, 16]: significantly inhibited H1299 cell proliferation in a concentration-dependent manner
GI50 ([2]; Homo sapiens, NCI-H1299, read-out: 50% growth-inhibitory concentration (GI50), H1299, 72 h, SRB): 8500 nM
GI50 [5]: > 100000 nM
levels of cyclin D1, CDK4 and CDK6 proteins ([6]; H1299, 20 µM, 3–60 h): dramatic down-regulation
levels of cyclin E and CDK2 ([6]; H1299, 20 µM, 3–60 h): remained basically unaltered
phosphorylation of Rb (particularly at Ser807/811) ([6]; H1299, 20 µM, 3–60 h): decreased time-dependently
lowest concentration at which decrease of Rb phosphorylated at Ser807/811 occurred ([6]; H1299, 48 h, 1.25–20 µM tested): 1.25 µM
GI50 [7]: 28500 nM
viability at 10 µM ([1]; Homo sapiens, NCI-H1299, 72 h, read-out: cell viability, R2HBJJ 10 µM, ACh 0 µM, H1299, 72 h): 54.1 ± 3.89%
viability at 20 µM ([1]; Homo sapiens, NCI-H1299, 72 h, read-out: cell viability, R2HBJJ 20 µM, ACh 0 µM, H1299, 72 h): 23.2 ± 2.14%
viability at 10 µM ([1]; Homo sapiens, NCI-H1299, read-out: cell viability, R2HBJJ 10 µM, ACh 1 µM added 1 h before, H1299, 72 h): 55 ± 6.79%
viability at 10 µM ([1]; Homo sapiens, NCI-H1299, read-out: cell viability, R2HBJJ 10 µM, ACh 10 µM added 1 h before, H1299, 72 h): 82.3 ± 5.82%
viability at 10 µM ([1]; Homo sapiens, NCI-H1299, read-out: cell viability, R2HBJJ 10 µM, ACh 100 µM added 1 h before, H1299, 72 h): 91.1 ± 3.65%
viability at 20 µM ([1]; Homo sapiens, NCI-H1299, read-out: cell viability, R2HBJJ 20 µM, ACh 1 µM added 1 h before, H1299, 72 h): 24.1 ± 1.94%
viability at 20 µM ([1]; Homo sapiens, NCI-H1299, read-out: cell viability, R2HBJJ 20 µM, ACh 10 µM added 1 h before, H1299, 72 h): 35.6 ± 4.48%
viability at 20 µM ([1]; Homo sapiens, NCI-H1299, read-out: cell viability, R2HBJJ 20 µM, ACh 100 µM added 1 h before, H1299, 72 h): 58.5 ± 2.83%
IC50 [8, 17]: 1.47 nM
Ki [8, 18]: 0.106 nM
IC50 [9]: 0.38 nM
Ki [9]: 0.0679 nM
IC50 [10]: 0.739 nM
Ki [10]: 0.0786 nM
IC50 [11, 17]: 5.33 nM
Ki [11, 18]: 1.33 nM
IC50 [12, 17]: 1.61 nM
Ki [12, 18]: 0.264 nM
percentage of G0/G1 phase ([13]; 48 h (Fig. 7B, concentration series), control 39.60%): 70.01%
percentage of G0/G1 phase ([13]; 72 h (Fig. 7A), control 40.35%): 76.60%
percentage of S phase ([13]; 72 h (Fig. 7A), control 46.14%): 15.93%
GI50 [14]: > 100000 nM

CN1[C@@H]2CC[C@H]1C[C@@H](OC(=O)C(CO)c1ccccc1)C2 (stereo partly drawn) [atropine]
effect on H1299 cell proliferation [2]: no obvious effects on cell proliferation

NC(=O)C(c1ccccc1)(c1ccccc1)[C@@H]1CCN(CCc2ccc3c(c2)CCO3)C1 [darifenacin]
effect on H1299 cell proliferation [2, 16]: significantly inhibited H1299 cell proliferation in a concentration-dependent manner

CNC1(C)C2CCC(C2)C1(C)C (stereo not drawn) [mecamylamine]
effect on H1299 cell proliferation [2, 16]: no obvious effects on cell proliferation

CN1CCN(CC(=O)N2c3ccccc3C(=O)Nc3cccnc32)CC1 [pirenzepine]
effect on H1299 cell proliferation [2, 16]: no obvious effects on cell proliferation

α-bungarotoxin [α-bgt]
effect on H1299 cell proliferation [2]: no obvious effects on cell proliferation
